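Values below derive from 48-hour exposures of cells grown in 96-well plates, with endpoints linearly interpolated between the two concentrations bracketing the appropriate inhibition level. The concentration for 50% growth inhibition is given as GI50.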 The source made the active and inactive calls. No stated cut-off is given here; in the data, active = GI50 up to about 1.1 µM and inactive = higher.
What was measured:
Experiment in all cases: NCI anticancer screen, dose series, 48 h
HL-60 = tested on: HL-60
KM-20L2 = tested on: KM-20L2
OVCAR-3 = tested on: OVCAR-3
SF-539 = tested on: SF-539
M19-MEL = tested on: M19-MEL
DLD-1 = tested on: DLD-1
TK-10 = tested on: TK-10
ACHN = tested on: ACHN
EKVX = tested on: EKVX
DMS-273 = tested on: DMS-273
NCI-H522 = tested on: NCI-H522
SNB-78 = tested on: SNB-78
MOLT-4 = tested on: MOLT-4
KM12 = tested on: KM12
SN12C = tested on: SN12C
HCT-116 = tested on: HCT-116
XF498 = tested on: XF498
NCI-H23 = tested on: NCI-H23
SK-MEL-28 = tested on: SK-MEL-28
HCT-15 = tested on: HCT-15
786-0 = tested on: 786-0
RPMI-8226 = tested on: RPMI-8226
HT-29 = tested on: HT-29
CAKI-1 = tested on: CAKI-1
SR = tested on: SR
IGROV-1 = tested on: IGROV-1
A549 = tested on: A549
SK-OV-3 = tested on: SK-OV-3
U-251 = tested on: U-251
LXFL 529 = tested on: LXFL 529
SF-268 = tested on: SF-268
NCI-H226 = tested on: NCI-H226
UO-31 = tested on: UO-31
CCRF-CEM = tested on: CCRF-CEM
UACC-62 = tested on: UACC-62
RXF 631 = tested on: RXF 631
LOX IMVI = tested on: LOX IMVI
SK-MEL-2 = tested on: SK-MEL-2
UACC-257 = tested on: UACC-257
K562 = tested on: K562
HOP-92 = tested on: HOP-92
SNB-75 = tested on: SNB-75
SNB-19 = tested on: SNB-19
Malme-3M = tested on: Malme-3M
SF-295 = tested on: SF-295
SW-620 = tested on: SW-620
M14 = tested on: M14
HOP-62 = tested on: HOP-62
A498 = tested on: A498
NCI-H460 = tested on: NCI-H460
DMS-114 = tested on: DMS-114
OVCAR-4 = tested on: OVCAR-4
COLO 205 = tested on: COLO 205
RXF 393 = tested on: RXF 393
HOP-18 = tested on: HOP-18
OVCAR-8 = tested on: OVCAR-8
OVCAR-5 = tested on: OVCAR-5
SK-MEL-5 = tested on: SK-MEL-5
HCC 2998 = tested on: HCC 2998

Measured: GI50

CCc1ccccc1NC(=O)C(=O)C(C#N)c1c(Cl)cccc1Cl (stereo unspecified)
inactive: HL-60 > 100 µM | KM-20L2 > 100 µM | OVCAR-3 > 100 µM | SF-539 > 100 µM | M19-MEL > 100 µM | DLD-1 > 100 µM | TK-10 > 100 µM | ACHN > 100 µM | EKVX > 100 µM | DMS-273 > 100 µM | NCI-H522 > 100 µM | SNB-78 > 100 µM | MOLT-4 > 100 µM | KM12 > 100 µM | SN12C > 100 µM | HCT-116 > 100 µM | XF498 > 100 µM | NCI-H23 > 100 µM | SK-MEL-28 > 100 µM | 786-0 > 100 µM | RPMI-8226 > 100 µM | HT-29 > 100 µM | CAKI-1 > 100 µM | SR > 100 µM | IGROV-1 > 100 µM | A549 > 100 µM | SK-OV-3 > 100 µM | U-251 > 100 µM | LXFL 529 > 100 µM | SF-268 > 100 µM | NCI-H226 > 100 µM | UO-31 > 100 µM | CCRF-CEM > 100 µM | UACC-62 > 100 µM | RXF 631 > 100 µM | LOX IMVI > 100 µM | SK-MEL-2 > 100 µM | UACC-257 > 100 µM | K562 > 100 µM | HOP-92 > 100 µM | SNB-75 > 100 µM | SNB-19 > 100 µM | Malme-3M > 100 µM | SF-295 > 100 µM | SW-620 > 100 µM | M14 > 100 µM
> 100 µM: HCT-15

O=C1CCNC(=O)NC1
> 100 µM: HCT-15
inactive: HL-60 > 100 µM | HOP-62 > 100 µM | KM-20L2 > 100 µM | A498 > 100 µM | OVCAR-3 > 100 µM | NCI-H460 > 100 µM | M19-MEL > 100 µM | DMS-114 > 100 µM | DLD-1 > 100 µM | TK-10 > 100 µM | ACHN > 100 µM | EKVX > 100 µM | DMS-273 > 100 µM | NCI-H522 > 100 µM | SNB-78 > 100 µM | MOLT-4 23.1 µM | KM12 > 100 µM | SN12C > 100 µM | HCT-116 > 100 µM | OVCAR-4 > 100 µM | XF498 > 100 µM | SK-MEL-28 > 100 µM | 786-0 > 100 µM | RPMI-8226 > 100 µM | HT-29 > 100 µM | CAKI-1 > 100 µM | SR > 100 µM | IGROV-1 > 100 µM | COLO 205 > 100 µM | RXF 393 > 100 µM | A549 > 100 µM | SK-OV-3 > 100 µM | U-251 > 100 µM | LXFL 529 > 100 µM | SF-268 > 100 µM | NCI-H226 > 100 µM | UO-31 > 100 µM | CCRF-CEM > 100 µM | UACC-62 > 100 µM | RXF 631 > 100 µM | LOX IMVI > 100 µM | SK-MEL-2 > 100 µM | UACC-257 > 100 µM | HOP-18 > 100 µM | K562 > 100 µM | HOP-92 > 100 µM | SNB-75 > 100 µM | SNB-19 > 100 µM | Malme-3M > 100 µM | SF-295 > 100 µM | OVCAR-8 > 100 µM | SW-620 > 100 µM | M14 > 100 µM | OVCAR-5 > 100 µM | SK-MEL-5 > 100 µM

C/C(=N\NC(=S)N1CCC(C2CCN(C(=S)N/N=C(\C)c3ccccn3)CC2)CC1)c1ccccn1
inactive: HL-60 > 100 µM | HOP-62 > 100 µM | KM-20L2 > 100 µM | A498 > 100 µM | OVCAR-3 60.3 µM | NCI-H460 > 100 µM | SF-539 51.3 µM | M19-MEL > 100 µM | DLD-1 > 100 µM | TK-10 53.8 µM | ACHN 53.7 µM | EKVX > 100 µM | DMS-273 64.1 µM | NCI-H522 63.5 µM | SNB-78 44.3 µM | KM12 > 100 µM | SN12C 86.3 µM | HCT-116 29.2 µM | OVCAR-4 > 100 µM | HCC 2998 > 100 µM | XF498 35 µM | NCI-H23 59.7 µM | SK-MEL-28 > 100 µM | 786-0 45.4 µM | RPMI-8226 > 100 µM | HT-29 > 100 µM | CAKI-1 68.1 µM | IGROV-1 68.7 µM | COLO 205 > 100 µM | RXF 393 71.8 µM | A549 55 µM | SK-OV-3 38.4 µM | U-251 34.1 µM | LXFL 529 55.3 µM | SF-268 > 100 µM | NCI-H226 60.7 µM | UO-31 > 100 µM | CCRF-CEM > 100 µM | UACC-62 > 100 µM | RXF 631 > 100 µM | LOX IMVI 68.9 µM | UACC-257 > 100 µM | HOP-18 > 100 µM | K562 > 100 µM | HOP-92 37.8 µM | SNB-75 28.2 µM | SNB-19 74.1 µM | Malme-3M > 100 µM | SF-295 71.3 µM | OVCAR-8 46.7 µM | SW-620 > 100 µM | M14 > 100 µM | OVCAR-5 > 100 µM | SK-MEL-5 62.4 µM

COc1ccc(C(=O)C(C(=O)CCC(=O)Nc2cccc(Cl)c2)c2ccc(OC)cc2)cc1 (stereo unspecified)
inactive: HL-60 > 100 µM | HOP-62 > 100 µM | KM-20L2 > 100 µM | A498 > 100 µM | OVCAR-3 > 100 µM | NCI-H460 > 100 µM | SF-539 > 100 µM | M19-MEL > 100 µM | DLD-1 > 100 µM | TK-10 > 100 µM | ACHN > 100 µM | EKVX > 100 µM | DMS-273 > 100 µM | NCI-H522 > 100 µM | MOLT-4 > 100 µM | KM12 > 100 µM | SN12C > 100 µM | HCT-116 > 100 µM | OVCAR-4 > 100 µM | HCC 2998 > 100 µM | XF498 > 100 µM | NCI-H23 > 100 µM | SK-MEL-28 > 100 µM | 786-0 > 100 µM | RPMI-8226 > 100 µM | HT-29 > 100 µM | CAKI-1 > 100 µM | SR > 100 µM | IGROV-1 > 100 µM | COLO 205 > 100 µM | A549 > 100 µM | SK-OV-3 > 100 µM | U-251 > 100 µM | LXFL 529 > 100 µM | SF-268 > 100 µM | NCI-H226 > 100 µM | UO-31 > 100 µM | CCRF-CEM > 100 µM | UACC-62 > 100 µM | RXF 631 > 100 µM | SK-MEL-2 > 100 µM | UACC-257 > 100 µM | HOP-18 53.3 µM | K562 > 100 µM | HOP-92 > 100 µM | SNB-75 61.2 µM | SNB-19 > 100 µM | Malme-3M > 100 µM | SF-295 > 100 µM | OVCAR-8 > 100 µM | SW-620 > 100 µM | M14 > 100 µM | OVCAR-5 9.42 µM | SK-MEL-5 > 100 µM
> 100 µM: HCT-15

From ChEMBL document CHEMBL1201862, “PubChem BioAssay data set” (2004)
